Results: patent US9393271B2, “GHRH agonists for islet cell transplantation and function and the treatment of diabetes” (UNIVERSITY OF MIAMI, priority 2012, dated 2016)
Non-standard residues stand in square brackets, D forms with d. Residues, ends and D or L forms follow the SMILES beside them. *: point of attachment. Phe(F5) = N[C@@H](Cc1c(F)c(F)c(F)c(F)c1F)C(=O)O; Desaminotyrosyl = O=C(CCc1ccc(O)cc1)*; NMeY = CN[C@@H](Cc1ccc(O)cc1)C(=O)O; Agmatine = N=C(N)NCCCCN*; Nle = CCCC[C@H](N)C(=O)O; Orn = NCCC[C@H](N)C(=O)O; Abu = CC[C@H](N)C(=O)O; Aoc = NCCCCCCCC(=O)O; GABA = NCCCC(=O)O

Target: T1, GHRH receptor (human pituitary membrane homogenates) (Homo sapiens, UniProt Q02643)
T1 sequence (Q02643 23-423): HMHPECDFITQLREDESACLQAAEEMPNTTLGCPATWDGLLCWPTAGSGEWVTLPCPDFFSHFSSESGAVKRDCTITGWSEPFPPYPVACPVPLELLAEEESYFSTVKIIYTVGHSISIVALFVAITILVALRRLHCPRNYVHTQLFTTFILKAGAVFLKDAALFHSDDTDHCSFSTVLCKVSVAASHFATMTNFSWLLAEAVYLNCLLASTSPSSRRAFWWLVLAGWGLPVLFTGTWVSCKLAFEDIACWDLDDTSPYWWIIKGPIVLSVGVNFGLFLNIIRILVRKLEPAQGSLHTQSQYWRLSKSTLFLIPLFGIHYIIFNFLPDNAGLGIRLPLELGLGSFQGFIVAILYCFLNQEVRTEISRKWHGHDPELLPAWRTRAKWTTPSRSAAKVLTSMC
Assay: GHRH receptor binding, ligand competition with 125I-labeled JV-1-42 (Table 7)
Design: Normal human pituitaries were purchased from the National Hormone and Peptide Program; tissue National Hormone and Peptide Program (A. F. Parlow, Harbor-UCLA Medical Center, Torrance, Calif.); host or cells: normal human pituitary, membrane fraction / homogenate
Details: JI-38 = 1

| Relative affinitiy (Binding potency) vs JI-38 | Compound |
| --- | --- |
| 14.5 | CCCC[C@H](NC(=O)[C@@H](NC(=O)[C@H](CC(=O)O)NC(=O)[C@H](CCC(N)=O)NC(=O)[C@H](CC(C)C)NC(=O)[C@H](CC(C)C)NC(=O)[C@H](CCCN)NC(=O)[C@H](CCCNC(=N)N)NC(=O)[C@H](C)NC(=O)[C@H](CO)NC(=O)[C@H](CC(C)C)NC(=O)[C@H](CCC(N)=O)NC(=O)[C@H](CC)NC(=O)[C@H](CC(C)C)NC(=O)[C@@H](NC(=O)[C@H](CCCN)NC(=O)[C@H](CCCNC(=N)N)NC(=O)[C@H](Cc1ccc(O)cc1)NC(=O)[C@H](CO)NC(=O)[C@H](CCC(N)=O)NC(=O)[C@@H](NC(=O)[C@H](Cc1ccccc1)NC(=O)[C@@H](NC(=O)[C@H](C)NC(=O)[C@H](CC(=O)O)NC(=O)[C@H](C)NC(=O)[C@H](Cc1ccc(O)cc1)NC)[C@@H](C)CC)[C@@H](C)O)C(C)C)[C@@H](C)CC)C(=O)N[C@@H](CC(=O)O)C(=O)N[C@@H](CCCNC(=N)N)C(=O)NC [Peptide P-27406, [N—Me-Tyr^1, Gln^8, Orn^12, Abu^15, Orn^21, Nle^27, Asp^28]hGHRH(1-29)NH—CH3] (H-[NMeY]ADAIFTQSYR[Orn]VL[Abu]QLSAR[Orn]LLQDI[Nle]DR-NHMe) |
| 3.67 | CCCC[C@H](NC(=O)[C@@H](NC(=O)[C@H](CC(=O)O)NC(=O)[C@H](CCC(N)=O)NC(=O)[C@H](CC(C)C)NC(=O)[C@H](CC(C)C)NC(=O)[C@H](CCCN)NC(=O)[C@H](CCCNC(=N)N)NC(=O)[C@H](C)NC(=O)[C@H](CO)NC(=O)[C@H](CC(C)C)NC(=O)[C@H](CCC(N)=O)NC(=O)[C@H](CC)NC(=O)[C@H](CC(C)C)NC(=O)[C@@H](NC(=O)[C@H](CCCN)NC(=O)[C@H](CCCNC(=N)N)NC(=O)[C@H](Cc1ccc(O)cc1)NC(=O)[C@H](CO)NC(=O)[C@H](CC(N)=O)NC(=O)[C@@H](NC(=O)[C@H](Cc1ccccc1)NC(=O)[C@@H](NC(=O)[C@H](C)NC(=O)[C@H](CC(=O)O)NC(=O)[C@H](CC)NC(=O)[C@H](Cc1ccc(O)cc1)NC)[C@@H](C)CC)[C@@H](C)O)C(C)C)[C@@H](C)CC)C(=O)N[C@@H](CO)C(=O)N[C@@H](CCCNC(=N)N)C(=O)NCCCC(N)=O [Peptide P-25503, [N—Me-Tyr^1, Abu^2, Orn^12, Abu^15, Orn^21, Nle^27, Gab^30]hGHRH(1-30)NH2] (H-[NMeY][Abu]DAIFTNSYR[Orn]VL[Abu]QLSAR[Orn]LLQDI[Nle]SR[GABA]-NH2) |
| 2.96 | CCCC[C@H](NC(=O)[C@@H](NC(=O)[C@H](CC(=O)O)NC(=O)[C@H](CCC(N)=O)NC(=O)[C@H](CC(C)C)NC(=O)[C@H](CC(C)C)NC(=O)[C@H](CCCN)NC(=O)[C@H](CCCNC(=N)N)NC(=O)[C@H](C)NC(=O)[C@H](CO)NC(=O)[C@H](CC(C)C)NC(=O)[C@H](CCC(N)=O)NC(=O)[C@H](CC)NC(=O)[C@H](CC(C)C)NC(=O)[C@@H](NC(=O)[C@H](CCCN)NC(=O)[C@H](CCCNC(=N)N)NC(=O)[C@H](Cc1ccc(O)cc1)NC(=O)[C@H](CO)NC(=O)[C@H](CC(N)=O)NC(=O)[C@@H](NC(=O)[C@H](Cc1ccccc1)NC(=O)[C@@H](NC(=O)[C@H](C)NC(=O)[C@H](CC(=O)O)NC(=O)[C@@H](C)NC(=O)[C@H](Cc1ccc(O)cc1)NC)[C@@H](C)CC)[C@@H](C)O)C(C)C)[C@@H](C)CC)C(=O)N[C@@H](CC(=O)O)C(=O)N[C@@H](CCCNC(=N)N)C(=O)NCC [Peptide P-28421, [N—Me-Tyr^1, D-Ala^2, Orn^12, Abu^15, Orn^21, Nle^27, Asp^28]hGHRH(1-29)NH—CH2—CH3] (H-[NMeY][dA]DAIFTNSYR[Orn]VL[Abu]QLSAR[Orn]LLQDI[Nle]DR-NHEt) |
| 1.44 | CCCC[C@H](NC(=O)[C@@H](NC(=O)[C@H](CC(=O)O)NC(=O)[C@H](CCC(N)=O)NC(=O)[C@H](CC(C)C)NC(=O)[C@H](CC(C)C)NC(=O)[C@H](CCCN)NC(=O)[C@H](CCCNC(=N)N)NC(=O)[C@H](C)NC(=O)[C@H](CO)NC(=O)[C@H](CC(C)C)NC(=O)[C@H](CCC(N)=O)NC(=O)[C@H](CC)NC(=O)[C@H](CC(C)C)NC(=O)[C@@H](NC(=O)[C@H](CCCN)NC(=O)[C@H](CCCNC(=N)N)NC(=O)[C@H](Cc1ccc(O)cc1)NC(=O)[C@H](CO)NC(=O)[C@H](CC(N)=O)NC(=O)[C@@H](NC(=O)[C@H](Cc1ccccc1)NC(=O)[C@@H](NC(=O)[C@H](C)NC(=O)[C@H](CC(=O)O)NC(=O)[C@H](C)NC(=O)[C@H](Cc1ccc(O)cc1)NC)[C@@H](C)CC)[C@@H](C)O)C(C)C)[C@@H](C)CC)C(=O)N[C@@H](CO)C(=O)N[C@@H](CCCNC(=N)N)C(=O)NCCCC(=O)NC [Peptide P-27415, [N—Me-Tyr^1, Orn^12, Abu^15, Orn^21, Nle^27, Gab^30]hGHRH(1-30)NH—CH3] (H-[NMeY]ADAIFTNSYR[Orn]VL[Abu]QLSAR[Orn]LLQDI[Nle]SR[GABA]-NHMe) |

The next lines start with the molecule.

| Compound | Relative affinitiy (Binding potency) vs JI-38 |
| --- | --- |
| CCCC[C@H](NC(=O)[C@@H](NC(=O)[C@H](CC(=O)O)NC(=O)[C@H](CCC(N)=O)NC(=O)[C@H](CC(C)C)NC(=O)[C@H](CC(C)C)NC(=O)[C@H](CCCN)NC(=O)[C@H](CCCNC(=N)N)NC(=O)[C@H](C)NC(=O)[C@H](CO)NC(=O)[C@H](CC(C)C)NC(=O)[C@H](CCC(N)=O)NC(=O)[C@H](CC)NC(=O)[C@H](CC(C)C)NC(=O)[C@@H](NC(=O)[C@H](CCCN)NC(=O)[C@H](CCCNC(=N)N)NC(=O)[C@H](Cc1ccc(O)cc1)NC(=O)[C@H](CO)NC(=O)[C@H](CC(N)=O)NC(=O)[C@@H](NC(=O)[C@H](Cc1ccccc1)NC(=O)[C@@H](NC(=O)[C@H](C)NC(=O)[C@H](CC(=O)O)NC(=O)[C@@H](C)NC(=O)CCc1ccc(O)cc1)[C@@H](C)CC)[C@@H](C)O)C(C)C)[C@@H](C)CC)C(=O)N[C@@H](CC(=O)O)C(=O)N[C@@H](CCCNC(=N)N)C(=O)NCCCCCCCC(N)=O [Peptide P-21300, [Dat^1, D-Ala^2, Orn^12, Abu^15, Orn^21, Nle^27, Asp^28, Amc^30]hGHRH(1-30)NH2] (Desaminotyrosyl-[dA]DAIFTNSYR[Orn]VL[Abu]QLSAR[Orn]LLQDI[Nle]DR[Aoc]-NH2) | 1.20 |
| CCCC[C@H](NC(=O)[C@@H](NC(=O)[C@H](CC(=O)O)NC(=O)[C@H](CCC(N)=O)NC(=O)[C@H](CC(C)C)NC(=O)[C@H](CC(C)C)NC(=O)[C@H](CCCN)NC(=O)[C@H](CCCNC(=N)N)NC(=O)[C@H](C)NC(=O)[C@H](CO)NC(=O)[C@H](CC(C)C)NC(=O)[C@H](CCC(N)=O)NC(=O)[C@H](CC)NC(=O)[C@H](CC(C)C)NC(=O)[C@@H](NC(=O)[C@H](CCCN)NC(=O)[C@H](CCCNC(=N)N)NC(=O)[C@H](Cc1ccc(O)cc1)NC(=O)[C@H](CO)NC(=O)[C@H](CCC(N)=O)NC(=O)[C@@H](NC(=O)[C@H](Cc1ccccc1)NC(=O)[C@@H](NC(=O)[C@H](C)NC(=O)[C@H](CC(=O)O)NC(=O)[C@@H](C)NC(=O)CCc1ccc(O)cc1)[C@@H](C)CC)[C@@H](C)O)C(C)C)[C@@H](C)CC)C(=O)N[C@@H](CC(=O)O)C(=O)N[C@H](CCCNC(=N)N)C(=O)NC [Peptide P-27401, [Dat^1, D-Ala^2, Gln^8, Orn^12, Abu^15, Orn^21, Nle^27, Asp^28, D-Arg^29]hGHRH(1-29)NH—CH3] (Desaminotyrosyl-[dA]DAIFTQSYR[Orn]VL[Abu]QLSAR[Orn]LLQDI[Nle]D[dR]-NHMe) | 1.59 |
| CCCC[C@H](NC(=O)[C@@H](NC(=O)[C@H](CC(=O)O)NC(=O)[C@H](CCC(N)=O)NC(=O)[C@H](CC(C)C)NC(=O)[C@H](CC(C)C)NC(=O)[C@H](CCCN)NC(=O)[C@H](CCCNC(=N)N)NC(=O)[C@H](C)NC(=O)[C@H](CO)NC(=O)[C@H](CC(C)C)NC(=O)[C@H](CCC(N)=O)NC(=O)[C@H](CC)NC(=O)[C@H](CC(C)C)NC(=O)[C@@H](NC(=O)[C@H](CCCN)NC(=O)[C@H](CCCNC(=N)N)NC(=O)[C@H](Cc1ccc(O)cc1)NC(=O)[C@H](CO)NC(=O)[C@H](CCC(N)=O)NC(=O)[C@@H](NC(=O)[C@H](Cc1ccccc1)NC(=O)[C@@H](NC(=O)[C@H](C)NC(=O)[C@H](CC(=O)O)NC(=O)[C@@H](C)NC(=O)CCc1ccc(O)cc1)[C@@H](C)CC)[C@@H](C)O)C(C)C)[C@@H](C)CC)C(=O)N[C@@H](CC(=O)O)C(=O)N[C@@H](CCCNC(=N)N)C(=O)NC [Peptide P-27408, [Dat^1, D-Ala^2, Gln^8, Orn^12, Abu^15, Orn^21, Nle^27, Asp^28]hGHRH(1-30)NH—CH3] (Desaminotyrosyl-[dA]DAIFTQSYR[Orn]VL[Abu]QLSAR[Orn]LLQDI[Nle]DR-NHMe) | 7.91 |
| CCCC[C@H](NC(=O)[C@@H](NC(=O)[C@H](CC(=O)O)NC(=O)[C@H](CCC(N)=O)NC(=O)[C@H](CC(C)C)NC(=O)[C@H](CC(C)C)NC(=O)[C@H](CCCN)NC(=O)[C@H](CCCNC(=N)N)NC(=O)[C@H](C)NC(=O)[C@H](CO)NC(=O)[C@H](CC(C)C)NC(=O)[C@H](CCC(N)=O)NC(=O)[C@H](CC)NC(=O)[C@H](CC(C)C)NC(=O)[C@@H](NC(=O)[C@H](CCCN)NC(=O)[C@H](CCCNC(=N)N)NC(=O)[C@H](Cc1ccc(O)cc1)NC(=O)[C@H](CO)NC(=O)[C@H](CC(N)=O)NC(=O)[C@@H](NC(=O)[C@H](Cc1c(F)c(F)c(F)c(F)c1F)NC(=O)[C@@H](NC(=O)[C@H](C)NC(=O)[C@H](CC(=O)O)NC(=O)[C@@H](C)NC(=O)[C@H](Cc1ccc(O)cc1)NC)[C@@H](C)CC)[C@@H](C)O)C(C)C)[C@@H](C)CC)C(=O)N[C@@H](CC(=O)O)C(=O)NCCCCNC(=N)N [Peptide P-20359, [N—Me-Tyr^1, D-Ala^2, Fpa5^6, Orn^12, Abu^15, Orn^21, Nle^27, Asp^28, Agm^29]hGHRH(1-29)] (H-[NMeY][dA]DAI[Phe(F5)]TNSYR[Orn]VL[Abu]QLSAR[Orn]LLQDI[Nle]D-Agmatine) | 1.43 |
